This note sets out measurements from a melting point compilation (Tetko et al.; mined from patent text by program, amines drawn as free bases though some values may be those of a salt).

As a reminder, the melting point is the temperature of the solid-liquid transition.

`O=C(O)[C@H](Cc1ccc(C(F)(F)F)c(F)c1)[C@@H](O)c1ccc(F)cc1` (racemic) registered a melting point of 74 to 75 °C.
Turning to `CC(C)c1ccc(N2Cc3ccc([N+](=O)[O-])cc3C2=O)cc1`, the melting point fell in the range of 225 to 227 °C.
On to `COc1cc(C(=O)C#CCOCC=C(C)C)cc(OC)c1OC`, for which the melting point was 32 °C.
Compound `COc1cc(C(=O)O)cc2c1oc1ccccc12` gave a melting point of 229 to 240 °C.
For `NS(=O)(=O)c1ccc(-c2cscc2-c2ccc(F)cc2)cc1` the value was 194 to 195 °C; for `Fc1ccc(NN=Cc2cccs2)cc1`, 138 to 140 °C.
Compound `CCOC(=O)C(=O)c1csc(NC(=O)Nc2ccccc2F)n1` came in with a melting point of 219 to 225 °C.
`Cc1cc(Nc2nc(-c3ccccc3)nc3ncccc23)[nH]n1` gave a melting point of 234 °C.
Then `COCC(=O)Nc1nc2ccccc2s1`, with 99 to 100 °C.
Then `COC(=O)[C@H](O)[C@@H](NC(=O)c1ccccc1)c1ccccc1`, with 184 to 185 °C; and `O=C(O)C#CC(O)(c1ccc(OCc2ccc3ccccc3n2)cc1)c1ccc(OCc2ccc3ccccc3n2)cc1`, with 169 to 172 °C; and `CCCS(=O)(=O)Nc1ccc(C(=O)c2nc(-c3cccc(C(=O)O)c3)c3ccccn23)cc1OC`, with 145 °C.
Regarding `CCOC(=O)N1C(=O)N(C(=O)OCC)C2(C1=O)C(=O)N(Cc1ccc(Cl)c(Cl)c1)c1ccccc12` (stereo not given), the melting point was 180 to 182 °C.
For `COC(=O)Nc1nc2cc(C(c3ccc(F)cc3)n3cncn3)ccc2[nH]1` (stereo not given) the value was 250 °C; for `Cc1cc(C)cc(-c2nc(NC(=O)c3cccnc3)sc2-c2ccncc2)c1`, 267 to 270 °C; for `COc1ccc(C(=O)C=Cc2ccccc2F)c(OC)c1OC`, 75 to 75.8 °C.
Then `CN(c1cccc2cc(-c3nccs3)[nH]c12)S(=O)(=O)c1ccsc1CO`, with 192 °C.
The compound `COc1ccc(N2C[C@](C)(CO)OC2=O)cc1` had a melting point of 131 to 132 °C.
In turn, `CCCCNC(=O)NS(=O)(=O)CCc1c(C2CC2)nn(C)c1-n1ccc2cc(Cl)cnc21` returned a melting point of 167 to 168 °C.
In turn, `CC1(C)Nc2cc(Br)ccc2-n2cccc21` registered a melting point of 89 to 91 °C.
For `CC(=O)NC(CC(=O)c1ccccc1)OC(C)=O` (stereo not given) the value was 82 to 83 °C; for `CC(C)c1cccc(C(C)C)c1NC(=O)Nc1c(-c2cccc(O)c2)c2cccnc2n(C)c1=O`, 152 to 155 °C.
As for `CC(C)C(S)C(=O)NCC(=O)O` (stereo not given), the melting point fell in the range of 118 to 119 °C.
For `O=C(C=Cc1cncc(F)c1)NCCCCN1CCN(C(c2ccccc2)c2ccccc2)CC1` the value was 128 to 129 °C; for `CCNS(=O)(=O)Oc1cc(C(C)(C)C)c(SC2=C(O)CC(CCc3ccc(N)cc3)(CCc3ccc(N)cc3)OC2=O)cc1C`, 194 °C; for `O=C1Cc2cc(C(=O)CCl)c(Br)cc2N1`, 238 to 239 °C.
Regarding `CCCc1cc(N2CCC(NCC(O)c3cnc4ccccc4c3)CC2)nc2sc(C(N)=O)c(N)c12` (stereo not given), the melting point lay within 213 to 216 °C.
Then `O=C1c2cc(Cl)c(Cl)cc2C(=O)c2c1c(Cl)c1cc(Cl)c(Cl)cc1c2Cl`, with above 260 °C; and `O=c1c(-c2ccccc2)ccc2n1CCSc1ccsc1-2`, with 139 to 141 °C.
For `COc1cc2ccc3c4cc(OC)c(OC)cc4ncc3c2cc1OC` the value was 122 to 124 °C; for `CCc1nc(C(=O)O)c(Cl)c(N)c1F`, 144 to 145 °C.
For `O=C(OCC1CO1)c1c(Br)c(Br)c(C(=O)OCC2CO2)c(Br)c1Br` (stereo not given) the value was 161 °C; for `CNS(=O)(=O)c1ccc(OC)c(C(=O)NCC2CCCN2CC2=CCCCC2)c1` (stereo not given), 140 to 141 °C.
On to `CC(C)C[C@H]1C(=O)NC2CCC(=O)N21` (stereo not given in full), for which the melting point is 156 to 157 °C.
For `COc1nc(-n2cc(C(=O)O)c(=O)c3cc(F)c(N4CC(N)C4)c(Cl)c32)c(F)cc1F` the value was 171 to 175 °C; for `CCCCCCCCCC[C@@H]1C(=O)OC(C)=C[C@@H]1C(=O)OC`, 40 to 42 °C; for `CCCN(CCN1CCN(c2ccc3[nH]ccc3c2)CC1)C1CCc2ccc(O)cc2C1` (stereo not given), 179 to 183 °C.
Compound `CC(C)N1CC2(COc3ccccc3OC2)OC1=O` came in with a melting point of 118 to 120 °C.
For `CCCn1c(=O)c2c(nc(C=Cc3ccc(C(=O)O)cc3)n2C)n(CCC)c1=O` the value was 215 to 217 °C.
Compound `CCOc1cc2c(Cl)cc(C)nc2nc1C` had a melting point of 144 to 147 °C.
Then `CC1(C)OC(c2ccc(S(C)(=O)=O)cc2)=C(c2ccc(S(C)(=O)=O)cc2)C1=O`, with 245 to 257 °C; and `Cc1c(C)c2c(c(C)c1OCc1ccccc1)CC(CCN1C(=O)c3ccccc3C1=O)O2` (stereo not given), with 108 to 110 °C; and `CC(C)(C)C(=O)Nc1ccc(O)cc1`, with 168 to 170 °C.
For `CCN(CC)CC=CC(=O)Nc1ccc2ncnc(Nc3cccc(Br)c3)c2c1` the value was 196 to 199 °C; for `CSc1ccc(N)c(C(=O)O)c1`, 145 to 150 °C.
In the case of `c1ccc(-c2cn3c(n2)sc2cnccc23)cc1`, the melting point was in the range of 183 to 185 °C.
Then `CCCc1c(OCc2cccc(C(=O)NCCCc3cccnc3)c2)ccc(C(C)=O)c1O`, with 110 to 112 °C; and `CC(C)c1nnc2c3ccc(Cl)cc3c(-c3ccccc3)nn12`, with 214 to 216 °C.
With `O=C(O)C(Cl)=C(Cl)C(O)=NCCc1ccc(F)cc1`, the melting point was in the range of 137 to 138 °C.
The compound `N#CC12CC3CC(CC(Cl)(C3)C1)C2` had a melting point of 156 to 157 °C.
Then `Cc1ccc(NC(=O)OCC(C)C)cc1Nc1ncc(-c2cccnc2)o1`, with 186 °C.
Then `Cc1cc(C(=O)Nc2cccc(Oc3ccc4nc(NC(=O)CN(C)C)cn4n3)c2)n(C)n1`, with 210 °C.
In turn, `CCCc1c(C(=O)NCc2ccc3c(Br)c(OCc4nnn[nH]4)ccc3c2)cnn1-c1ccccc1` gave a melting point of 219 to 220 °C.
`COc1ccc(C=CC(=O)c2c(O)cc(OC)cc2OC)cc1` showed a melting point of 111 °C.
Regarding `CCC(C)C(CN[C@@H](Cc1ccccc1)C(=O)OCc1ccccc1)NC(=O)OC(C)(C)C` (stereo not given in full), the melting point lay within 53 to 55 °C.
For `COc1ccc(Br)c2nc(SCc3ccccc3)nn12` the value was 78 to 79 °C; for `O=c1[nH]c(-c2ccc(Cl)c(Cl)c2)co1`, 262 to 263 °C; for `CCCC(=O)Nc1n[nH]c2cc(-c3ccc(CC)cc3)ccc12`, 210 °C.
In turn, `N#CSCC(Cl)=C(Cl)CSC#N` registered a melting point of 166 to 169 °C.
On to `CC1(C)Cc2nc(C3CCCC3)c(C(F)c3ccc(C(F)(F)F)cc3)c(-c3ccc(F)c(F)c3)c2C(O)C1` (stereo not given), for which the melting point was 149 to 150 °C.
Then `NOCC(O)CN1CCOCC1` (stereo not given), with 83 to 85 °C.
Compound `N#CN(c1ccccc1)c1nc(N(C#N)c2ccccc2)nc(N(C#N)c2ccccc2)n1` registered a melting point of 209 to 215 °C.
Take `O=C1CCCN1c1cccc(-n2cnc3cc(-c4ccoc4)cnc32)c1`: the melting point is 208 to 210 °C.
For `CC(C)(C)c1cc(SC(=S)NN)cc(C(C)(C)C)c1O` the value was 146 °C; for `CS(=O)(=O)c1ccc(-c2cnn(-c3ccc(F)cc3F)c(=O)c2-c2ccc(F)cc2)cc1`, 245 to 247 °C; for `CCCCc1nc2cccc(C#N)c2n1Cc1ccccc1Cl`, 124 to 127 °C.
For `CCc1ccc(C2C(=O)Oc3ccccc32)cc1` (stereo not given) the value was 127 to 132 °C.
For `Cc1c(-c2ccc(OC3CCCC3)cc2)n(Cc2ccc(OCCBr)cc2)c2ccc(OCc3ccccc3)cc12` the value was 110 to 112 °C; for `CC(=O)N1c2c(ccn3c(C)c(C)nc23)[C@@H](O)[C@H](O)[C@H]1c1ccccc1`, 260 to 261 °C.
Compound `Cc1ccc2c(c1)c(N1CCNCC1)c(C#N)c(=O)n2Cc1ccccc1` came in with a melting point of 152 °C.
For `CC(O)Cc1cccc(S(N)(=O)=O)c1` (stereo not given) the value was 149 to 150 °C.
Regarding `O=C1Nc2ccc(I)cc2C1=NNC(=O)c1ccc(O[C@@H](Cc2ccccc2)C(=O)OCc2ccccc2)cc1`, the melting point worked out at 194 °C.
Take `CCCCCCCCCCCCCCOC(=O)n1cc(-c2ccccc2)nc1O`: the melting point was 166 to 171 °C.
On to `COC(=O)c1cc([N+](=O)[O-])c(F)cc1F`, for which the melting point is 78 to 80 °C.
For `CC1(O)Nc2cc(O)c(C(C)(C)C)cc2O1` (stereo not given) the value was 203 to 205 °C.
Take `COc1cc(Oc2cc(C(F)(F)F)nn2C)nc(Oc2cc(C(F)(F)F)nn2C)c1`: the melting point was found to be 107 °C.
For `CC(C)=CCN(C(=O)OC(C)(C)C)c1ccc(OC2CCN(C(=O)OC(C)(C)C)CC2)cc1` the value was 145 to 148 °C; for `CC1(C)C(=O)Nc2ccc(-c3cccc(C#N)c3)cc21`, 200 to 202 °C; for `Cn1c(-c2cccc(-c3cc4ccccc4n3C)c2)cc2ccccc21`, 150 °C.
For `CCCC1Cc2c3c(c(C)c(C)c2C1O)OC(C(=O)O)C3` (stereo not given) the value was 161 °C; for `CCCCCC(=O)C=CC1=C(CCC(=O)O)C(=O)CC1O` (stereo not given), 57 °C.
As to `CC(C)(CC(O)(CO)C(F)(F)F)c1cc(Br)cc2c1OCC2` (stereo not given), the melting point fell in the range of 124 to 128 °C.
`CCOC(=O)c1ccc2nc(N[C@@H]3CCc4ccccc43)ccc2c1`: the melting point was 137 °C.
Take `COc1ccc(COCc2cccc(C(=O)O)c2)cc1OC1CC2CCC1C2` (stereo not given): the melting point lay in the range of 77 to 79 °C.
`CSc1ccc(CN2CCC(=O)C(C(c3ccccc3)c3ccccc3)C2)cc1` (stereo not given) came in with a melting point of 126 to 128 °C.
`NCCNc1ccc([N+](=O)[O-])cc1Cl` returned a melting point of 116 °C.
Then `O=C(O)CNC(=O)c1cc(-c2ccc3c(c2)OCO3)c2c3c(ccc2c1)OCO3`, with 255 to 257 °C; and `COC(=O)c1nc(N)ccc1Oc1nc(OC)cc(OC)n1`, with 67 to 69 °C; and `CN(C)CCc1ccc(O)c2nc[nH]c12`, with 245 to 252 °C.
Then `Cc1cc(C)c(C)c(OCC(=O)O)c1`, with 129 to 130 °C.
